# Reference: PubChem BioAssay AID1850 (Southern Research Specialized Biocontainment Screening …, 2009)
# “And” between values parts separate entries of the source, which are not always exact repeats. Equal entries are not always repeated.
# System: Salmonella Typhi PhoP-promoter GFP reporter, fluorescence, 4 h
# Test: PhoP regulon inhibitors, Salmonella typhi PhoP promoter GFP reporter, confirmatory (AID 1850)
row,Structure (SMILES),IC50
1,CC(C)(C)c1ccc(OCCCCCCN2CCNCC2)cc1,69.2 µM
2,Cc1ccc(Nc2nc(NCCO)c3ccccc3n2)cc1C,18.7 µM
3,CCCCOc1ccc(CN=C(N)N)cc1Cl,134 µM
4,CCn1cc(C(=O)NCCCN(C)C)c(=O)c2cc(F)c(N3CCN(C)CC3)cc21,20.4 µM
5,O=[N+]([O-])c1ccc(/C=[N+](\[O-])CCO)o1,60.3 µM
6,c1ccc(CN2CCC(Nc3nc(-c4ccccc4)nc4ccccc34)CC2)cc1,35 µM
7,CCCCCCCCCCCCCCCC[n+]1ccc(C(N)=O)cc1,10.5 µM
8,Cc1ccccc1S(=O)(=O)NNC(=O)C(=O)NNc1ccccn1,74.3 µM
9,Brc1ccc2c(c1)C(OC1CN3CCC1CC3)c1ccccc1CS2 (stereo not drawn),38.2 µM
10,CCc1ccc(N2CC(C(=O)N/N=C/c3cc([N+](=O)[O-])ccc3O)CC2=O)cc1 (stereo not drawn),55.8 µM
11,CCCCCCCCCCOC(=O)Cn1c(COc2ccc(OC)cc2)[n+](C)c2ccccc21,22.7 µM and 14.4 µM
12,CN1CCN(c2ccc(NC(=O)c3ccc(-c4ccc(Br)cc4)o3)cc2)CC1,28.9 µM
13,Oc1ccc(Cl)cc1Cc1cc(Cl)ccc1O,33.8 µM
14,CC1CC(C)CN(CCOc2ccc(Cl)cc2Cl)C1 (stereo not drawn),113 µM
15,c1ccc(-c2nc3ccccc3[nH]2)cc1,48 µM
16,C#CCOCCOCCOCCNc1nc(N2CCN(C(=O)[C@H](Cc3cc4ccccc4[nH]3)n3cc([C@@H](N)CC(C)C)nn3)CC2)nc(N2CCN(C(=O)[C@H](Cc3cc4ccccc4[nH]3)n3cc([C@@H](N)CC(C)C)nn3)CC2)n1,39.9 µM
17,Cc1ccc(-c2csc(NC(=O)C[n+]3cc(-c4ccccc4)n4c3CCC4)n2)cc1,20.7 µM
18,c1ccc2c(NCCc3c[nH]c4ccccc34)c3ccccc3nc2c1,36.3 µM
19,O=C(N/N=C/c1cc([N+](=O)[O-])ccc1O)c1cccc2cc[nH]c12,36.5 µM
20,Clc1ccc(C[n+]2cc(-c3ccc(Cl)cc3)n3c2CCC3)cc1,52.4 µM
21,C1=C(CCNc2ncnc3c2[nH]c2ccccc23)CCCC1,30.7 µM
22,O=C(N/N=C/c1cc(Br)cc(Br)c1O)c1ccncc1,43.9 µM
23,C=CC1=C(C(=O)O)N2C(=O)[C@@H](NC(=O)/C(=N/OCC(=O)O)c3csc(N)n3)[C@H]2SC1,17.3 µM
24,CCOc1ccc(-c2cc(C)[n+](CCN(CC)CC)c(-c3ccc(OCC)cc3)c2)cc1,37.5 µM
25,Cc1ccc2c(c1)N/C(=C(\C=C(/Cl)[N+](=O)[O-])[N+](=O)[O-])N2,99.7 µM
26,CC[C@@H](C)[C@H](CN[C@H](CNC)C(C)C)NC[C@@H](C)c1ccc(CC(C)C)cc1,74 µM
27,CCN(CC(=O)NC(C)(C)C)C(=O)COc1c(Cl)cc(Cl)c2ccc(C)nc12,41.4 µM

row,Structure (SMILES),IC50
1,O=c1[nH]c(-c2ccccn2)nc(C(F)(F)F)c1Br,70.2 µM
2,O=[N+]([O-])c1ccc(O)c2ncccc12,0.96 µM
3,c1ccc2c(c1)OC(CCCN1CCCCC1)c1ccccc1S2 (stereo not drawn),95.1 µM
4,CN(C)CCNc1oc(COc2ccc(-c3ccccc3)cc2)nc1C#N,59.2 µM
5,COc1c2ccccc2nc2ccccc12,25.6 µM
6,O=C(CCN1CCOCC1)N/N=C/c1cc(Br)cc(Br)c1O,31.1 µM
7,Cc1ccc(C(=O)N/C(=C\c2ccc(-c3ccc(Br)cc3)o2)C(=O)NCCCN(C)C)cc1,37.1 µM
8,CC(=O)NC(=S)NNC(=O)c1ccc(Br)cc1,34.9 µM
9,Cc1ccc(Nc2c3c(nc4ccccc24)CCC3)cc1,19.1 µM
10,CN(C)CC/C=C1\c2ccccc2Sc2ccc(Cl)cc21,72.2 µM
11,COc1ccc(C(=O)NC(=S)NNC(=O)c2cnccn2)cc1,92.4 µM
12,Cc1ccc(NC(=O)CSC(N)=O)cc1Cl,10.4 µM
13,COc1ccc(Nc2c3ccccc3nc3ccccc23)cc1,35.4 µM
14,Cc1ccc(-c2[nH]ncc2/C=N/n2c(C)nc3ccccc3c2=O)cc1,149 µM
15,CN1C(=O)NC(c2ccc(O)cc2)C(C(=O)c2cccs2)C1(O)C(F)(F)F (stereo not drawn),38.1 µM
16,Oc1c(CN2CCCCC2)cc(Br)c2cccnc12,17.8 µM
17,O=C(N/N=C/c1sc2ccccc2c1O)c1cccc2ccccc12,70.5 µM
18,O=[N+]([O-])c1cccc2c(N3CCCC3)ccnc12,26.6 µM
19,CNCc1c(OCc2ccccc2F)ccc2ccccc12,79.5 µM
20,Oc1c(I)cc(Cl)c2cccnc12,9.4 µM
21,COc1cc([N+](=O)[O-])cc(/C=N/NC(=O)C(O)(c2ccccc2)c2ccccc2)c1O,107 µM
22,[O-][n+]1c2c(c3c4non(O)c4ccc31)CCCC2,74.7 µM
23,C[N+]12CN3CN(CN(C3)C1)C2,86.3 µM
24,O=c1ccc2cc3c([nH]c4ccc(Br)cc43)oc-2c1O,24.1 µM
25,CN1CCN(C(c2cccc(Cl)c2)c2ccccc2Cl)CC1 (stereo not drawn),103 µM
26,O=c1c2c([nH]c3ccccc13)CCCCC2,43.6 µM
